Data reported in ChEMBL document CHEMBL1136616, “Carbonic anhydrase inhibitors: SAR and X-ray crystallographic study for the interaction of sugar sulfamates/sulfamides with isozymes I, II and IV” (Bioorg Med Chem Lett, 2003).
One block for each compound: values may come before it.

Tests used:
Carbonic anhydrase 2 = Carbonic anhydrase 2 (Homo sapiens, UniProt P00918)
Description: Inhibitory activity against human cloned carbonic anhydrase II (hCA II)

Carbonic anhydrase 4 = target: T1, Carbonic anhydrase 4 (Bos taurus, UniProt Q95323)
T1 sequence (Q95323 whole entry): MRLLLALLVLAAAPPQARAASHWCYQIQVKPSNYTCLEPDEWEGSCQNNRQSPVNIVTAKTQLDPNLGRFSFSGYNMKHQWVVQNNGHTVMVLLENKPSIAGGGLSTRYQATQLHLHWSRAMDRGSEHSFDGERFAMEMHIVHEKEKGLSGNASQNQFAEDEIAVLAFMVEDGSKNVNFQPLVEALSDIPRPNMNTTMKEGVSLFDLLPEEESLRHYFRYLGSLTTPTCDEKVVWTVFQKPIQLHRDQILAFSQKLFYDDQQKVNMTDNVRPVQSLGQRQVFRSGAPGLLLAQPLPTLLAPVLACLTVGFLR
Description: Inhibitory activity against carbonic anhydrase isolated from bovine lung microsome (bCA IV)

Carbonic anhydrase 1 = Carbonic anhydrase 1 (Homo sapiens, UniProt P00915)
Sequence of Carbonic anhydrase 1 (P00915 whole entry): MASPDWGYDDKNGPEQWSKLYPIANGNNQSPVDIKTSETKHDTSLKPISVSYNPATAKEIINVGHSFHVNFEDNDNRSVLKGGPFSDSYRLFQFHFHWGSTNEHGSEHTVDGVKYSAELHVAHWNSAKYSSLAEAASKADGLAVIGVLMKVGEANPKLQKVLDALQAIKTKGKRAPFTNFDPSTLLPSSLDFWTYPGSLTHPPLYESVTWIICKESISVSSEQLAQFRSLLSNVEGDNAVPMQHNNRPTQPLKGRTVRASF
Description: Inhibitory activity against human cloned carbonic anhydrase I (hCA I)

Compound: CC1(C)OC[C@@H]2O[C@@]3(C(=O)NS(N)(=O)=O)OC(C)(C)O[C@H]3[C@@H]2O1
- Ki (Carbonic anhydrase 2): 0.068 µM
- Ki (Carbonic anhydrase 4): 0.425 µM
- Ki (Carbonic anhydrase 1): 0.75 µM

Compound: CC1(C)O[C@@H]2O[C@@H](COS(N)(=O)=O)[C@H]3OC(C)(C)O[C@H]3[C@@H]2O1
- Ki (Carbonic anhydrase 2): 13 µM
- Ki (Carbonic anhydrase 4): 27 µM
- Ki (Carbonic anhydrase 1): 400 µM

Compound: CC1(C)O[C@H]2[C@@H](O1)[C@@H](C(=O)NNS(N)(=O)=O)O[C@@H]1OC(C)(C)O[C@@H]12
- Ki (Carbonic anhydrase 2): 15 µM
- Ki (Carbonic anhydrase 4): 30 µM
- Ki (Carbonic anhydrase 1): > 100 µM

Compound: NS(=O)(=O)O [SULFAMATE]
- Ki (Carbonic anhydrase 1): 21 µM

Compound: CC1(C)OC[C@@H]2O[C@@]3(COC(=O)NS(N)(=O)=O)OC(C)(C)O[C@H]3[C@@H]2O1
- Ki (Carbonic anhydrase 2): 0.071 µM
- Ki (Carbonic anhydrase 4): 0.13 µM
- Ki (Carbonic anhydrase 1): 1.2 µM

Compound: CC1(C)O[C@@H]2[C@@H](CO[C@@]3(C(=O)NNS(N)(=O)=O)OC(C)(C)O[C@@H]23)O1
- Ki (Carbonic anhydrase 2): > 100 µM
- Ki (Carbonic anhydrase 4): > 100 µM
- Ki (Carbonic anhydrase 1): > 100 µM

The next lines start with the values.

- Ki (Carbonic anhydrase 2): 25 µM
- Ki (Carbonic anhydrase 4): 46 µM
- Ki (Carbonic anhydrase 1): > 100 µM
Compound: CC1(C)O[C@@H]2O[C@@H](C(=O)NS(N)(=O)=O)[C@H]3OC(C)(C)O[C@H]3[C@@H]2O1

- Ki (Carbonic anhydrase 2): 21 µM
- Ki (Carbonic anhydrase 4): 33 µM
- Ki (Carbonic anhydrase 1): 420 µM
Compound: CC1(C)OC[C@@H]2O[C@@]3(C(=O)NNS(N)(=O)=O)OC(C)(C)O[C@H]3[C@@H]2O1

- Ki (Carbonic anhydrase 2): 0.024 µM
- Ki (Carbonic anhydrase 4): 0.045 µM
- Ki (Carbonic anhydrase 1): 0.42 µM
Compound: CC1(C)O[C@@H]2[C@@H](CO[C@@]3(COC(=O)NS(N)(=O)=O)OC(C)(C)O[C@@H]23)O1

- Ki (Carbonic anhydrase 2): > 100 µM
- Ki (Carbonic anhydrase 4): > 100 µM
- Ki (Carbonic anhydrase 1): > 100 µM
Compound: CC1(C)O[C@@H]2[C@@H](CO[C@@]3(C(=O)NS(N)(=O)=O)OC(C)(C)O[C@@H]23)O1
